3 compounds from patent US12275731B2, “Azaindole inhibitors of wild-type and mutant forms of LRRK2” (DANA-FARBER CANCER INSTITUTE, INC., priority 2018, dated 2025) can be followed below.

Molecules are shown by their SMILES.

Common to all, as to assay: KinomeScan profiling
Holding throughout (format): binding

Test [1] concerns the target T1, DRAK2 (Homo sapiens, UniProt O94768).
T1 sequence (O94768 1-372): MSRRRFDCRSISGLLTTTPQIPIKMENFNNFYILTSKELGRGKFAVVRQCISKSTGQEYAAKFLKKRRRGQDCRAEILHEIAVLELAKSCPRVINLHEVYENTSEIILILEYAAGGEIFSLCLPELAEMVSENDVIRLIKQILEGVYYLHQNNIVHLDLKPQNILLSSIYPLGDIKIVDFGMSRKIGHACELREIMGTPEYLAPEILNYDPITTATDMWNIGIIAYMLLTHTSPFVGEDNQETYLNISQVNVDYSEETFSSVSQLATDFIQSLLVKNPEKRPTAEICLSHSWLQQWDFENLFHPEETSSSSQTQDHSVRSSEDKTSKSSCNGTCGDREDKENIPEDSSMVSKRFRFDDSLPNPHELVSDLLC
To be noted: DRAK2, 1 μM; read-out: % control. An outline of the steps:
(§1)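 The panel spans 468 kinases, and each inventive compound was applied at 1 μM from DMSO. Lower % control means stronger binding; the activity cut-off is set at less than 35%.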

The target of test [2] is T2, AURKA (Homo sapiens, UniProt O14965).
T2 construct: purchased KinomeScan®
T2 sequence (O14965 1-403): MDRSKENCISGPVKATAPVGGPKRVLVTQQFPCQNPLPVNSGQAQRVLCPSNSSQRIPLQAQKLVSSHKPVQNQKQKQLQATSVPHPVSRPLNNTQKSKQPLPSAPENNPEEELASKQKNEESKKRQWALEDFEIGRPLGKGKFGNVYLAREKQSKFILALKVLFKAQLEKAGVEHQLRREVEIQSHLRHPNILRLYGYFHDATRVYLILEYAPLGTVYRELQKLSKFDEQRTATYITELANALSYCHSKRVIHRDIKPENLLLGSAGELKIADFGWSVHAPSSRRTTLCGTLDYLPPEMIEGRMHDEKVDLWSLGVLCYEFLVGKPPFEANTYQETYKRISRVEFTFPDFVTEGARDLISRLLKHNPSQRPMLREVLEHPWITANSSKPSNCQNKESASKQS
As to conditions: read-out: % control. An outline of the steps:
as §1

The target in test [3] is MAPKAPK2 (Homo sapiens, UniProt P49137). As to conditions: MAPKAPK2, 1 μM; read-out: % control. An outline of the steps:
as §1

For test [4], the target named is T3, YSK4 (Homo sapiens, UniProt Q56UN5).
T3 sequence (Q56UN5 1-1328): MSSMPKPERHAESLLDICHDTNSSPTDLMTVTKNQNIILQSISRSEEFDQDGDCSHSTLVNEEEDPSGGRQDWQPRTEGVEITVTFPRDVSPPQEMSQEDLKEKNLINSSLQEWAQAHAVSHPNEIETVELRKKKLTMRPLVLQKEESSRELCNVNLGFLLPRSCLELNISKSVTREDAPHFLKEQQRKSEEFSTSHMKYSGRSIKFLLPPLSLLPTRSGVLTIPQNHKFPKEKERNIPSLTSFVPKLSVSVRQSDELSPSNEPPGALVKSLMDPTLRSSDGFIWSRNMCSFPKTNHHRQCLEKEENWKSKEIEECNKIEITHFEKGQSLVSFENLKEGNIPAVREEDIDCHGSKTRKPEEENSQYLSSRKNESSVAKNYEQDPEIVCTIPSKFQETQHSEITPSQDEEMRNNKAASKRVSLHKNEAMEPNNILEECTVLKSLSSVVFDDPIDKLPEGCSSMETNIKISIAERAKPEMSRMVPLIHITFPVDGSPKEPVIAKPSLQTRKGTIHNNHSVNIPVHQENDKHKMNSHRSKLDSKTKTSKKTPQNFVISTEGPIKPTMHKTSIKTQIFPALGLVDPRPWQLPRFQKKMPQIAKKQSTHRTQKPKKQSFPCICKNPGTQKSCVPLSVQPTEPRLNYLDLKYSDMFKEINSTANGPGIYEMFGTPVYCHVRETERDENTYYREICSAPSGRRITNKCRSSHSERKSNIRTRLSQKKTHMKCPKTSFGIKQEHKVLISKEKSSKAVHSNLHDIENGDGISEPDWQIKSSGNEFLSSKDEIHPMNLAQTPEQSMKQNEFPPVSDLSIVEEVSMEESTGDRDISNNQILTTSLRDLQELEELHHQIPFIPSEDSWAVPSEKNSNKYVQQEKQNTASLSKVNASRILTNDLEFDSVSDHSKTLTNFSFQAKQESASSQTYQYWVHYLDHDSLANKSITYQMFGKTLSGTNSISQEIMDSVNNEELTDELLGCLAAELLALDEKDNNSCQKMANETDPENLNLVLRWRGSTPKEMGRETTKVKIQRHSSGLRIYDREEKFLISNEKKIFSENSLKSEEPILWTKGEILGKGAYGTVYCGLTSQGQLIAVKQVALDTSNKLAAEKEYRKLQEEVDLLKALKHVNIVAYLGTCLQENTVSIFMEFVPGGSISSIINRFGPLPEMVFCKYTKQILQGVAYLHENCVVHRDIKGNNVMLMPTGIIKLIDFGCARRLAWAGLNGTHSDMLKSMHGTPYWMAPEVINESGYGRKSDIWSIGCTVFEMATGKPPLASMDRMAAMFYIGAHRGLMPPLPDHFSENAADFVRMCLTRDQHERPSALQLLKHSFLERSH
As to conditions: YSK4, 1 μM; read-out: % control. An outline of the steps: as §1

Sequence of MAPKAPK2 (P49137 whole entry): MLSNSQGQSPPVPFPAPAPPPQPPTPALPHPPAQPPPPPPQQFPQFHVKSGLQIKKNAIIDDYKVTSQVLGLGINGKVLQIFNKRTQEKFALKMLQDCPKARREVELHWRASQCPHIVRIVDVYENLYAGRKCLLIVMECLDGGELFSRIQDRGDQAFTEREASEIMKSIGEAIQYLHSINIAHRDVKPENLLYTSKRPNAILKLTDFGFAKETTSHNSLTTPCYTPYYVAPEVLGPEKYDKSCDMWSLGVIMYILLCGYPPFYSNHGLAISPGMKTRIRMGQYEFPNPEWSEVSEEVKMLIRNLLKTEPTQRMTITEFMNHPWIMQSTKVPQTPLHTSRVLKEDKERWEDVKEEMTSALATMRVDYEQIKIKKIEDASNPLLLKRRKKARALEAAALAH

Consider `CNc1c(-c2ccc(C(=O)N3CCC(N4CCOCC4)CC3)cc2)cnc2[nH]cc(Cl)c12` [Compound 96, (4-(3-chloro-4-(methylamino)-1H-pyrrolo[2,3-b]pyridin-5-yl)phenyl)(4-morpholinopiperidin-1-yl)methanone], for which the remaining binding at 1 µM in test [1] was determined as 19%; in test [2], 36%; in test [3], 100%; in test [4], 2.2%.
The corresponding values for `O=C(c1ccc(-c2cnc3[nH]cc(Cl)c3c2NC2CCCC2)cc1)N1CCC(N2CCOCC2)CC1` [Compound 101, (4-(3-chloro-4-(cyclopentylamino)-1H-pyrrolo[2,3-b]pyridin-5-yl)phenyl)(4-morpholinopiperidin-1-yl)methanone] are 92%, 82%, 51% and 63%.
On the same counts, the results for `CNc1c(-c2cnn([C@H]3CCN(C(C)=O)C[C@@H]3F)c2)cnc2[nH]cc(Cl)c12` [Compound 77, 1-((3S,4S)-4-(4-(3-chloro-4-(methylamino)-1H-pyrrolo[2,3-b]pyridin-5-yl)-1H-pyrazol-1-yl)-3-fluoropiperidin-1-yl)ethan-1-one] are 47%, 35%, 100% and 2.6%.
